Data on 5 compounds can be found in patent publication US4412994A, “Mannich-base hydroxamic acid prodrugs, compositions and use” (INTERx Research Corporation, priority 1982, dated 1983).

The subject of the test is mouse ear. The test is described as follows: mouse ear assay (croton oil-induced ear inflammation, anti-inflammatory activity). The class given is in vivo, male ddY strain mouse. To be noted: topical, 0.05 ml in acetone containing 2% croton oil on right ear; 3 hours; linear regression of data at 2×10^-2, 4×10^-2 and 8×10^-2 M; groups of 15 mice. On the procedure:
G. Van Arman, Clin. Pharm. […] Details of the mouse ear assay are as follows:
The test animal was the male ddY strain mouse (20-25 grams each). Solutions of the test compound in acetone containing 2% croton oil (i.e. a solution containing 98 parts of acetone to 2 parts of croton oil) were prepared for varying concentrations of the test compound. Then, the test animals were anesthetized and 0.05 ml of the selected test solution was applied in 0.025 ml aliquots, one each to the anterior and posterior surface of the right ear of each mouse. Three hours after application, the mice were sacrificed via ether inhalation and both ears were removed from each mouse. Then, one circular section, 8 mm in diameter, was taken from each ear using a leather punch. The increase in weight caused by the irritant was determined by subtracting the weight of the untreated left ear section from that of the right ear section. Drug effects expressed as percent inhibition were determined at each selected concentration (molarity) of each test compound according to the following equation: [formula]
Groups of 15 mice were treated at each dosage level of each test compound. The control group consisted of 30 mice. In the control group, the right ear of each mouse was treated with the croton oil/acetone solution described above but not containing test compound, while the left ear of each control mouse was untreated.
Indomethacin, indomethacin hydroxamic acid and the compounds of Examples 3, 4 and 5 were tested according to the mouse ear assay described above.
For the compound `COc1ccc2c(c1)c(CC(=O)NO)c(C)n2C(=O)c1ccc(Cl)cc1` [Indomethacin hydroxamic acid, α-[1-(4'-Chlorobenzoyl)-5-methoxy-2-methylindol-3-yl]acetohydroxamicAcid], the ED50 is reported as 0.096 M.

`COc1ccc2c(c1)c(CC(=O)O)c(C)n2C(=O)c1ccc(Cl)cc1` [Indomethacin, 1-(4'-Chlorobenzoyl)-5-methoxy-2-methyl-3-indolylacetic Acid, reference compound] registered an ED50 of 0.061 M.

The compound `COc1ccc2c(c1)c(CC(=O)N(O)CN1CCN(C)CC1)c(C)n2C(=O)c1ccc(Cl)cc1` [α-[1-(4'-Chlorobenzoyl)-5-methoxy-2-methylindol-3-yl]-N-[(4-methylpiperazin-1-yl)methyl]acetohydroxamic Acid] gave an ED50 of 0.027 M.

As to `COc1ccc2c(c1)c(CC(=O)N(O)CN1CCOCC1)c(C)n2C(=O)c1ccc(Cl)cc1` [α-[1-(4'-Chlorobenzoyl)-5-methoxy-2-methylindol-3-yl]-N-(morpholinomethyl)acetohydroxamic Acid], the ED50 is recorded as 0.054 M.

For `CCN(CC)CN(O)C(=O)Cc1c(C)n(C(=O)c2ccc(Cl)cc2)c2ccc(OC)cc12` [α-[1-(4'-Chlorobenzoyl)-5-methoxy-2-methylindol-3-yl]-N-(N', N'-diethylaminomethyl)acetohydroxamic Acid], the ED50 is 0.041 M.
